Laboratory results: the supplement of paper PMC10307832

Legend:
Assay in all cases: relative viability (nuclei count vs DMSO), 5 days (fraction); higher = more cells survive
[1] = compound: Cc1ccc(NC(=O)c2ccc(CN3CCN(C)CC3)cc2)cc1Nc1nc(-c2cccnc2)cs1 [Masitinib] + Cc1nc(Nc2ncc(C(=O)Nc3c(C)cccc3Cl)s2)cc(N2CCN(CCO)CC2)n1 [Dasatinib] (partner 0.075 µM)
Summary of the method: (§1)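 Lung cancer cell lines, seeded in 1536-well plates, were treated the following day by pin tool with a single drug or with five library-drug doses (not always all listed) in √10 steps on top of a fixed anchor-drug dose. Cells were fixed and nuclei stained in one step after 5 days, and nuclei were counted. Relative viability is the nuclei count for treated wells divided by that for vehicle wells, reported as medians of duplicate plates.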

[2] = compound: CC1=CC(=CC=C1)NC2=NC(=CS2)C3=CC=NC=C3 + Nc1ncn([C@H]2C[C@H](O)[C@@H](CO)O2)c(=O)n1 [Decitabine] (partner 2 µM)
Summary of the method: as §1

[3] = compound: Cc1ccc(NC(=O)c2ccc(CN3CCN(C)CC3)cc2)cc1Nc1nc(-c2cccnc2)cs1 [Masitinib] + CCNC(=O)c1noc(-c2cc(C(C)C)c(O)cc2O)c1-c1ccc(CN2CCOCC2)cc1 [Luminespib] (partner 0.01 µM)
Summary of the method: as §1

[4] = compound: CC1=CC(=CC=C1)NC2=NC(=CS2)C3=CC=NC=C3 + CC(C)C[C@H](NC(=O)[C@H](Cc1ccccc1)NC(=O)c1cnccn1)B(O)O [Bortezomib] (partner 0.002 µM)
Summary of the method: as §1

Cell Line | relative viability ([1]; first compound 0.01 µM) | relative viability ([1]; first compound 0.03162 µM) | relative viability ([1]; first compound 0.1 µM) | relative viability ([1]; first compound 0.3162 µM) | relative viability ([1]; first compound 1 µM) | relative viability ([2]; first compound 0.08 µM) | relative viability ([2]; first compound 0.253 µM) | relative viability ([2]; first compound 0.8 µM) | relative viability ([2]; first compound 2.53 µM) | relative viability ([2]; first compound 8 µM) | relative viability ([3]; first compound 0.01 µM) | relative viability ([3]; first compound 0.03162 µM) | relative viability ([3]; first compound 0.1 µM) | relative viability ([3]; first compound 0.3162 µM) | relative viability ([3]; first compound 1 µM) | relative viability ([4]; first compound 0.08 µM) | relative viability ([4]; first compound 0.253 µM) | relative viability ([4]; first compound 0.8 µM) | relative viability ([4]; first compound 2.53 µM) | relative viability ([4]; first compound 8 µM)
HCC-827 | 0.269 | 0.286 | 0.275 | 0.314 | 0.293 | 0.298 | 0.317 | 0.352 | 0.287 | 0.328 | 0.597 | 0.906 | 0.816 | 0.558 | 0.583 | 1.05 | 0.903 | 0.946 | 0.974 | 0.882
HOP-62 | 0.604 | 0.632 | 0.785 | 0.634 | 0.606 | 0.219 | 0.218 | 0.261 | 0.244 | 0.247 | 0.75 | 0.839 | 0.949 | 0.968 | 0.855 | 0.673 | 0.784 | 1.16 | 0.588 | 0.496
LC-2-ad | 0.47 | 0.587 | 0.639 | 0.523 | 0.554 | 0.754 | 0.776 | 0.793 | 0.799 | 0.69 | 0.918 | 1.18 | 1.04 | 0.916 | 0.929 | 0.884 | 0.94 | 1.13 | 0.873 | 0.875
LCLC-97TM1 |  | 0.961 | 0.903 | 0.943 | 0.84 | 0.204 | 0.204 | 0.233 | 0.254 | 0.245 |  | 0.777 | 0.857 | 0.946 | 0.857 | 0.715 | 0.478 | 0.476 | 0.365 | 0.463
LCLC-103H | 0.41 | 0.467 | 0.462 | 0.437 | 0.445 | 0.72 | 0.664 | 0.672 | 0.665 | 0.573 | 0.727 | 0.932 | 1.04 | 0.748 | 1.03 | 0.995 | 1.12 | 1.05 | 1.1 | 0.635
LOU-NH91 | 0.557 | 0.511 | 0.54 | 0.442 | 0.546 | 0.744 | 0.797 | 0.728 | 0.825 | 0.78 | 0.307 | 0.32 | 0.337 | 0.272 | 0.372 | 0.446 | 0.457 | 0.447 | 0.461 | 0.398
LU99A | 0.583 | 0.619 | 0.557 | 0.503 | 0.503 | 0.889 | 0.939 | 0.787 | 0.709 | 0.879 | 0.3 | 0.219 | 0.271 | 0.353 | 0.191 |  | 1.09 | 1.15 | 1.06 | 1.05
LXF-289 | 0.223 | 0.206 | 0.238 | 0.202 | 0.207 | 0.353 | 0.383 | 0.391 | 0.375 | 0.363 | 0.581 | 0.796 | 0.775 | 0.746 | 0.541 | 0.952 | 0.959 | 0.988 | 0.978 | 0.823
